Results on 35 compounds are retold here after patent US20240083839A1, “COMPOSITIONS AND METHODS FOR TREATING NEURODEGENERATIVE DISEASES AND DISORDERS” (The Regents of the University of California, priority 2020, published 2024).

Each structure is given as a SMILES string. Counter-ions that a name gives are not always drawn.

For series [1], the system named is SirT1 levels in N2a-E4 cells. Kind of series: SirT1 levels by AlphaLISA in ApoE4-transfected N2a cells. The note with it: for SirT1 increase: N2a-E4 cells. The series is classed as cell-based, murine. How it is done:
Prompted by the emerging importance of the associations between ApoE4 and the expression/protein levels of SirT1, high-throughput screening (HTS) of the UCLA compound library was performed using AlphaLISA to detect SirT1 levels in murine neuroblastoma cells stably transfected with ApoE4 (E4-N2a) to identify SirT1 enhancers. […] In the in vivo study, mice were treated orally at 40 mkd (20 mg/kg BID) for 56 days and underwent assessment of cognition in the Novel Object Recognition (NOR) testing paradigm. […] The performance of A03-treated E4-AD mice (FIG. 5A) improved to level of non-transgenic vehicle-treated mice.
(Bead proximity is the source of the signal in Alpha formats.)
Throughout, for PAMPA: unit not given here.

With `C[C@H](NC(=O)OC(C)(C)C)C(=O)N[C@H]1CCC[C@H]1c1ccc(Cl)cc1` (mixture of isomers) [MP-95, tert-butyl-((S)-1-(((±)-cis-2-(4-chlorophenyl)cyclopentyl)amino)-1-oxopropan-2-yl)carbamate], in series [1], the “SirT1 SOμM” value is listed as “a, a (a <250%)” and the “SirT1 SμM” value was “a, a (a <250%)”.
As to `C[C@H](N)C(=O)N[C@H]1CCCCNC1=O.Cl` (racemic) [MP-103, (S)-2-amino-N—((S)-2-oxoazepan-3-yl)propanamide hydrochloride], in series [1], the “SirT1 SOμM” value was “a, a (a <250%)” and the “SirT1 SμM” value was “a, a (a <250%)”.
Consider `C[C@H](N)C(=O)OC1(Cc2ccc(Cl)cc2)CCNC1` (single isomer, unassigned) [MP-32, 3-(4-chlorobenzyl)pyrrolidin-3-yl L-alaninate], for which, in series [1], the “SirT1 SOμM” value is “C (C = 100% increase versus control)” and the “SirT1 SμM” value is “A (A >20%)”. The PAMPA in “PAMPA” was determined as 0.68.
Consider `C[C@H](N)C(=O)OC1(Cc2ccc(Cl)cc2)CCNC1` (single isomer, unassigned) [MP-33, 3-(4-chlorobenzyl)pyrrolidin-3-yl L-alaninate], for which, in series [1], the “SirT1 SOμM” value was “C (C = 100% increase versus control)” and the “SirT1 SμM” value is reported as “A (A >20%)”. Also, the PAMPA in the series “PAMPA” was determined as 0.7.
Turning to `C[C@H](NC(=O)OC(C)(C)C)C(=O)O[C@H]1CCC[C@@H]1c1ccc(Cl)cc1` (single isomer, unassigned) [MP-87], in series [1], the “SirT1 SOμM” value is “a, a (a <250%)” and the “SirT1 SμM” value is recorded as “a, a (a <250%)”.
With `C[C@H](NC(=O)OC(C)(C)C)C(=O)O[C@H]1CCC[C@@H]1c1ccc(Cl)cc1` (single isomer, unassigned) [MP-88], in series [1], the “SirT1 SOμM” value is on record as “a, a (a <250%)” and the “SirT1 SμM” value is “a, a (a <250%)”.
As to `C[C@H](N)C(=O)O[C@@H]1CCC[C@H]1c1ccc(Cl)cc1.Cl` (single isomer, unassigned) [MP-90], in series [1], the “SirT1 SOμM” value is “a, a (a <250%)” and the “SirT1 SμM” value was “a, a (a <250%)”.
`C[C@H](NC(=O)OC(C)(C)C)C(=O)O[C@H]1CCC[C@H]1c1ccc(Cl)cc1` (single isomer, unassigned) [MP-91]: in series [1], the “SirT1 SOμM” value is on record as “a, a (a <250%)” and the “SirT1 SμM” value was “a, a (a <250%)”.
With `C[C@H](NC(=O)OC(C)(C)C)C(=O)O[C@H]1CCC[C@H]1c1ccc(Cl)cc1` (single isomer, unassigned) [MP-92], in series [1], the “SirT1 SOμM” value was “a, a (a <250%)” and the “SirT1 SμM” value is “a, a (a <250%)”.
For the compound `C[C@H](N)C(=O)O[C@@H]1CCC[C@@H]1c1ccc(Cl)cc1.Cl` (single isomer, unassigned) [MP-93], in series [1], the “SirT1 SOμM” value is reported as “C (C = 100% increase versus control)” and the “SirT1 SμM” value is recorded as “A (A >20%)”.
Regarding `C[C@H](N)C(=O)O[C@H]1CCC[C@H]1c1ccc(Cl)cc1.Cl` (single isomer, unassigned) [MP-94], in series [1], the “SirT1 SOμM” value is on record as “A (A >20%)” and the “SirT1 SμM” value is recorded as “a (a <250%)”.
For `C[C@H](NC(=O)OC(C)(C)C)C(=O)N[C@@H]1CCC[C@@H]1c1ccc(Cl)cc1` (single isomer, unassigned) [MP-96], in series [1], the “SirT1 SOμM” value is listed as “a, a (a <250%)” and the “SirT1 SμM” value is “a, a (a <250%)”.
Take `C[C@@H](N)C(=O)OC1(Cc2ccc(Cl)cc2)CCNCC1` (stereo in doubt) [MP-49, 4-(4-chlorobenzyl)piperidin-4-yl alaninate]: in series [1], the “SirT1 SOμM” value was “B (B >50%)” and the “SirT1 SμM” value is on record as “A (A >20%)”. The PAMPA in the series “PAMPA” is reported as 1.02(2).
For the compound `C[C@H](NC(=O)OC(C)(C)C)C(=O)N(C)[C@H]1CCC(c2ccc(Cl)c(Cl)c2)c2ccccc21` (stereo in doubt) [MP-80, tert-butyl ((S)-1-(((1S,4R)-4-(3,4-dichlorophenyl)-1,2,3,4-tetrahydronaphthalen-1-yl)(methyl)amino)-1-oxopropan-2-yl)carbamate], in series [1], the “SirT1 SOμM” value is “a, a (a <250%)” and the “SirT1 SμM” value was “a, a (a <250%)”.
Turning to `C[C@H](N)C(=O)N(C)[C@H]1CCC(c2ccc(Cl)c(Cl)c2)c2ccccc21.Cl` (stereo in doubt) [MP-81, (S)-2-amino-N-((1S,4R)-4-(3,4-dichlorophenyl)-1,2,3,4-tetrahydronaphthalen-1-yl)-N-methylpropanamide hydrochloride], in series [1], the “SirT1 SOμM” value is given as “B, B (B >50%)” and the “SirT1 SμM” value was “B, B (B >50%)”.
On to `O=C1NCc2ccccc2C[C@@H]1N[C@@H](c1ccccc1)[C@H](O)c1ccccc1` (stereo in doubt) [MP-102, 4(R)-(1R,2S)-1,2-diphenyl-2-hydroxyethylamino-2,3,4,5-tetrahydro-1H-2-benzazepin-3-one], for which, in series [1], the “SirT1 SOμM” value is reported as “a, a (a <250%)” and the “SirT1 SμM” value is recorded as “a, a (a <250%)”.
As to `C[C@H](N)C(=O)Nc1cccc2ccccc12` [MP-54, (S)-2-amino-N-(naphthalen-1-yl)propanamide], in series [1], the “SirT1 SOμM” value was “C (C = 100% increase versus control)” and the “SirT1 SμM” value is reported as “A (A >20%)”.
Regarding `C[C@H](Nc1ccccc1-c1ccccc1)C(N)=O` [MP-60], in series [1], the “SirT1 SOμM” value is listed as “B (B >50%)” and the “SirT1 SμM” value is “A (A >20%)”.
Consider `N[C@H]1Cc2ccccc2CNC1=O` [MP-71, (S)-4-amino-4,5-dihydro-1H-benzo[c]azepin-3(2H)-one hydrochloride], for which, in series [1], the “SirT1 SOμM” value is given as “C (C = 100% increase versus control)” and the “SirT1 SμM” value was “B (B >50%)”.
Regarding `C[C@H](NC(=O)OC(C)(C)C)C(=O)OC(C)(C)Cc1ccc(C(F)(F)F)cc1` [MP-75, 2-methyl-1-(4-(trifluoromethyl)phenyl)propan-2-yl 2-((tert-butoxycarbonyl)amino)propanoate], in series [1], the “SirT1 SOμM” value is recorded as “a, a (a <250%)” and the “SirT1 SμM” value was “a, a (a <250%)”.
For `C[C@H](N)C(=O)NC(C)(C)Cc1ccc(F)cc1.Cl` [MP-83, (S)-2-amino-N-(1-(4-fluorophenyl)-2-methylpropan-2-yl)propanamide hydrochloride], in series [1], the “SirT1 SOμM” value is recorded as “A (A >20%)” and the “SirT1 SμM” value is “a (a <250%)”.
`C[C@H](N)C(=O)NC1CCc2ccccc2NC1=O` (stereo partly drawn) [MP-84, (2S)-2-amino-N-(2-oxo-2,3,4,5-tetrahydro-1H-benzo[b]azepin-3-yl)propanamide hydrochloride]: in series [1], the “SirT1 SOμM” value was “A (A >20%)” and the “SirT1 SμM” value is reported as “a (a <250%)”.
For the compound `C[C@H](NC(=O)OC(C)(C)C)C(=O)N[C@H]1CCC[C@@H]1c1ccc(Cl)cc1` [MP-85, tert-butyl ((S)-1-(((1S,2R)-2-(4-chlorophenyl)cyclopentyl)amino)-1-oxopropan-2-yl)carbamate], in series [1], the “SirT1 SOμM” value is listed as “a, a (a <250%)” and the “SirT1 SμM” value was “a, a (a <250%)”.
Take `C[C@H](N)C(=O)N[C@H]1CCC[C@@H]1c1ccc(Cl)cc1.Cl` [MP-86, (S)-2-amino-N-((1S,2R)-2-(4-chlorophenyl)cyclopentyl)propanamide]: in series [1], the “SirT1 SOμM” value was “B (B >50%)” and the “SirT1 SμM” value was “A (A >20%)”.
`C[C@H](N)C(=O)O[C@@H]1CCC[C@H]1c1ccc(Cl)cc1.Cl` [MP-89, (S)-(1R,2S)-2-(4-chlorophenyl)cyclopentyl 2-aminopropanoate hydrochloride]: in series [1], the “SirT1 SOμM” value is on record as “A (A >20%)” and the “SirT1 SμM” value is recorded as “a (a <250%)”.
In the case of `C[C@H](N)C(=O)NC(C)(C)Cc1ccncc1.Cl` [MP-100, (S)-2-amino-N-(2-methyl-1-(pyridin-4-yl)propan-2-yl)propanamide hydrochloride], in series [1], the “SirT1 SOμM” value is “A, A (A >20%)” and the “SirT1 SμM” value was “A, A (A >20%)”.
Regarding `C[C@H](N)C(=O)NC(C)(C)c1ccc(Cl)cc1.Cl` [MP-101, (S)-2-amino-N-(2-(4-chlorophenyl)propan-2-yl)propanamide hydrochloride], in series [1], the “SirT1 SOμM” value is “B (B >50%)” and the “SirT1 SμM” value is “a (a <250%)”.
In the case of `C[C@H](N)C(=O)N[C@H]1Cc2ccccc2CN(C)C1=O.Cl` [MP-104, (S)-2-amino-N—((S)-2-methyl-3-oxo-2,3,4,5-tetrahydro-1H-benzo[c]azepin-4-yl)propanamide hydrochloride], in series [1], the “SirT1 SOμM” value is “A (A >20%)” and the “SirT1 SμM” value is “a (a <250%)”.
For `C[C@H](N)C(=O)N[C@H]1Cc2ccccc2CNC1=O.Cl` [MP-105, (S)-2-amino-N—((S)-3-oxo-2,3,4,5-tetrahydro-1H-benzo[c]azepin-4-yl)propanamide hydrochloride], in series [1], the “SirT1 SOμM” value is “a, a (a <250%)” and the “SirT1 SμM” value was “a, a (a <250%)”.
Turning to `C[C@H](N)C(=O)NC(C)(Cc1cc(F)cc(F)c1)Cc1cc(F)cc(F)c1` [MP-106, (S)-2-amino-N-(1,3-bis(3,5-difluorophenyl)-2-methylpropan-2-yl)propanamide hydrochloride], in series [1], the “SirT1 SOμM” value is listed as “a, a (a <250%)” and the “SirT1 SμM” value is “a, a (a <250%)”.
As to `N[C@@H](CO)C(=O)NCCc1ccc(Cl)cc1` [MP-107], in series [1], the “SirT1 SOμM” value is reported as “A, A (A >20%)” and the “SirT1 SμM” value is listed as “A, A (A >20%)”.
Regarding `CN1Cc2ccccc2C[C@H](N)C1=O` [MP-108], in series [1], the “SirT1 SOμM” value is reported as “A, A (A >20%)” and the “SirT1 SμM” value is on record as “A, A (A >20%)”.
For `Cl.N[C@H]1Cc2cc(Cl)ccc2CNC1=O` [MP-109, (S)-4-amino-7-chloro-4,5-dihydro-1H-benzo[c]azepin-3(2H)-one], in series [1], the “SirT1 SOμM” value is given as “B (B >50%)”, the “SirT1 SμM” value is recorded as “A (A >20%)” and the SirT1 increase entry is reported as “increases SirT1”.
Consider `CNCCC(Oc1ccc(C(F)(F)F)cc1)c1ccccc1` (stereo not drawn) [fluoxetine, reference compound], for which the SirT1 increase result in series [1] was “did not increase SirT1”.
The same measure, in the same setting: then `CC12CC3CC(C)(C1)CC(N)(C3)C2` [memantine, reference compound], with “did not increase SirT1”.
